Results on three molecules are retold here after patent publication US20110165652A1, “COMPOSITIONS, METHODS AND SYSTEMS FOR SINGLE MOLECULE SEQUENCING” (LIFE TECHNOLOGIES CORPORATION, priority 2008, published 2011).

Assay [1] in a line: Initial tests of reaction rate of alpha-phosphate modified dGTP. To be noted: data not shown. Type of assay: biochemical.
The subject of assay [2] is dATP-1-ROX. The assay is described as follows: Primer extension by various polymerases with dATP-1-ROX or natural dATP. In kind it is biochemical. To be noted: dATP-1-ROX vs natural dATP, optimal temperature of each polymerase. As to the method:
FIG. 6 depicts the results of experiments to assess the nucleotide incorporation efficiency of various DNA mutated and non-mutated polymerases (Sequenase; Thermo-Sequenase; wild-type Taq from Promega; HIV reverse transcriptase; and a mutant Taq polymerase comprising the mutation F647C) using both natural (unlabeled) dATP as well as the gamma-modified nucleotide dATP-1-Rox. Each reaction was conducted at the individual polymerase's optimal temperature with equimolar concentrations of enzymatically cleared gamma-labeled nucleotides and units of polymerase. […] Primer extension reactions were performed in the presence of the nucleotide dATP-1-ROX or natural dATP. The ‘Neg Control’ is a control lacking both polymerase and nucleotide. The extension products were size separated using denaturing gel electrophoresis, and visualized on a Bio-Rad fx Imager. Incorporation of the gamma-labeled nucleotide results in the production of a resolvable extension duplex that indicates incorporation of a single dATP. The non-extended primer is the lower band; extension products are more slowly migrating. […] FIG. 81 is a solid ribbon diagram generated in DS Viewer Pro of Taq DNA Polymerase.

On to `Nc1nc2c(ncn2[C@H]2C[C@H](O)[C@@H](COP(O)(=S)OP(=O)(O)OP(=O)(O)O)O2)c(=O)[nH]1` (stereo partly drawn) [[alpha]-P-thiol-dGTP], for which the “reduction of reaction rate as compared to the natural counterpart” value in assay [1] came out at 1.61 fold.

Consider `BP(=O)(OCC1OC(n2cnc3c(=O)[nH]c(N)nc32)CC1O)OP(=O)(O)OP(=O)(O)O` (stereo not drawn) [[alpha]-P-borano-dGTP], for which the “reduction of reaction rate as compared to the natural counterpart” value in assay [1] is 1.32 fold.

B1: VTaq647C: engineered mutant Taq polymerase comprising the mutation F647C, SEQ. ID: 7 (protein, listed as Thermus aquaticus)
chain: ALEEAPWPPPEGAFVGFVLSRKEPMWADLLALAAARGGRVHRAPEPYKALRDLKEARGLLAKDLSVLALREGLGLPPGDDPMLLAYLLDPSNTTPEGVARRYGGEWTEEAGERAALSERLFANLWGRLEGEERLLWLYREVERPLSAVLAHMEATGVRLDVAYLRALSLEVAEEIARLEAEVFRLAGHPFNLNSRDQLERVLFDELGLPAIGKTEKTGKRSTSAAVLEALREAHPIVEKILQYRELTKLKSTYIDPLPDLIHPRTGRLHTRFNQTATATGRLSSSDPNLQNIPVRTPLGQRIRRAFIAEEGWLLVALDYSQIELRVLAHLSGDENLIRVFQEGRDIHTETASWMCGVPREAVDPLMRRAAKTINFGVLYGMSAHRLSQELAIPYEEAQAFIERYFQSFPKVRAWIEKTLEEGRRRGYVETLFGRRRYVPDLEARVKSVREAAERMAFNMPVQGTAADLMKLAMVKLFPRLEEMGARMLLQVHDELVLEAPKERAEAVARLAKEVMEGVYPLAVPLEVEVGIGEDWLSAKE
Regarding B1, the “incorporation of gamma-labeled nucleotide” value in assay [2] was “significantly improved incorporation”.
